Laboratory results reported in publication PMC11999280, “Design and screening of novel endosomal escape compounds that enhance functional delivery of oligonucleotides in vitro” (Molecular Therapy. Nucleic Acids, 2025).

What was measured:
Type in all cases: cell-based
[1] = test system: mCherry-GAL9 expressing HEK293 cells; test: GAL9 recruitment assay, HEK293; conditions: calculated mean from >3 independent exp.
Experimental: (§1) Experiments assessing GAL9 localization as an indicator for endosomal remodeling were performed as previously described[15] using 8× stablemCherry-GAL9 expressing cell lines, SHSY5Y, U2OS, 16HBE, NCI-H358, HuH7, HepG2, HEK293, and HeLa. For mCherry-GAL9 recruitment, 3,000 or 6,500 cells/well (depending upon cell line) were seeded into 384-well CellCarrier Ultra plates 24 h prior to treatment (PerkinElmer, catalog no. 6007558). An Echo 655T acoustic dispenser (Labcyte) was used for EEE dose-response preparation by transferring to the cell plate. At assay endpoints, cells were PBS washed, 4% paraformaldehyde fixed at room temperature […] (VWR, catalog no. 9713.1000), and nuclei stained with PBS +1 μg/mL Hoechst 33342 (Thermo Fisher Scientific, catalog no. H21492).
(§2) Imaging was performed using a spinning-disk confocal microscope (Yokogawa: CV8000) with a ×20w objective (numerical aperture 1.0). Cells and mCherry-GAL9 structure identification and quantification were done using Columbus image-analysis software (PerkinElmer version 2.9.0). Data processing was done using Spotfire (Tibco version 11.4) and Prism (GraphPad version 9.1.0). Image panels were assembled using the FigureJ plugin for FIJI.[43] All mCherry-GAL9 experiments were performed three times (N = 3) with duplicated wells per treatment (n = 2).

[2] = test system: mCherry-GAL9 expressing U2OS cells; test: GAL9 recruitment assay, U2OS; conditions: calculated mean from >3 independent exp.
Experimental: as §1, §2

[3] = test system: mCherry-GAL9 expressing SHSY5Y cells; test: GAL9 recruitment assay, SHSY5Y; conditions: calculated mean from >3 independent exp.
Experimental: as §1, §2

[4] = test system: mCherry-GAL9 expressing HeLa cells; test: GAL9 recruitment assay, HeLa; conditions: calculated mean from >3 independent exp.
Experimental: as §1, §2

[5] = test system: mCherry-GAL9 expressing NCI-H358 cells; test: GAL9 recruitment assay, NCI-H358; conditions: calculated mean from >3 independent exp.
Experimental: as §1, §2

[6] = test system: mCherry-GAL9 expressing 16HBE cells; test: GAL9 recruitment assay, 16HBE; conditions: calculated mean from >3 independent exp.
Experimental: as §1, §2

[7] = test system: HeLa_Luc705 cells (pLuc/705 splice-switching reporter); test: Functional 705-SSO delivery, luciferase splice-switching assay; conditions: HeLa-Luc705 + 2 µM SSO; EEE 2.5 - 3 µM; mean from >3 independent experiments
Procedure, shortened: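 Splice correction was measured as firefly luciferase luminescence in Triton X-100 lysates taken 24 h after enhancer treatment. Before treatment, the 10,000 cells/well had spent 24 h with 1–2 μM 705-SSO (2′-OMe, phosphorothioate). For comparison, 100–200 nM SSO was lipofected with LF2000.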

[8] = test system: mCherry-GAL9 expressing HepG2 cells; test: GAL9 recruitment assay, HepG2; conditions: calculated mean from >3 independent exp.
Experimental: as §1, §2

[9] = test system: mCherry-GAL9 expressing HuH7 cells; test: GAL9 recruitment assay, HuH7; conditions: calculated mean from >3 independent exp.
Experimental: as §1, §2

CCOc1nn(C2CCN(C)CC2)cc1Nc1ncc(C(F)(F)F)c(-c2c[nH]c3ccccc23)n1 [EEE15]
Gal9 response compared to reference ([1]; EEE 0.31 µM): 0.020 | Gal9 response compared to reference ([1]; EEE 0.62 µM): 0.019 | Gal9 response compared to reference ([1]; EEE 1.25 µM): 0.015 | Gal9 response compared to reference ([1]; EEE 2.5 µM): 0.015 | Gal9 response compared to reference ([1]; EEE 5 µM): 0.018 | Gal9 response compared to reference ([1]; EEE 10 µM): 0.022 | Gal9 response compared to reference ([2]; EEE 0.31 µM): 0.010 | Gal9 response compared to reference ([2]; EEE 0.62 µM): 0.009 | Gal9 response compared to reference ([2]; EEE 1.25 µM): 0.010 | Gal9 response compared to reference ([2]; EEE 2.5 µM): 0.009 | Gal9 response compared to reference ([2]; EEE 5 µM): 0.014 | Gal9 response compared to reference ([2]; EEE 10 µM): 0.014 | Gal9 response compared to reference ([3]; EEE 0.31 µM): 0.014 | Gal9 response compared to reference ([3]; EEE 0.62 µM): 0.017 | Gal9 response compared to reference ([3]; EEE 1.25 µM): 0.014 | Gal9 response compared to reference ([3]; EEE 2.5 µM): 0.016 | Gal9 response compared to reference ([3]; EEE 5 µM): 0.012 | Gal9 response compared to reference ([3]; EEE 10 µM): 0.012 | Gal9 response compared to reference ([4]; EEE 0.31 µM): 0.004 | Gal9 response compared to reference ([4]; EEE 0.62 µM): 0.004 | Gal9 response compared to reference ([4]; EEE 1.25 µM): 0.004 | Gal9 response compared to reference ([4]; EEE 2.5 µM): 0.005 | Gal9 response compared to reference ([4]; EEE 5 µM): 0.004 | Gal9 response compared to reference ([4]; EEE 10 µM): 0.003 | Gal9 response compared to reference ([5]; EEE 0.31 µM): 0.013 | Gal9 response compared to reference ([5]; EEE 0.62 µM): 0.016 | Gal9 response compared to reference ([5]; EEE 1.25 µM): 0.017 | Gal9 response compared to reference ([5]; EEE 2.5 µM): 0.015 | Gal9 response compared to reference ([5]; EEE 5 µM): 0.016 | Gal9 response compared to reference ([5]; EEE 10 µM): 0.011 | Gal9 response compared to reference ([6]; EEE 0.31 µM): 0.006 | Gal9 response compared to reference ([6]; EEE 0.62 µM): 0.007 | Gal9 response compared to reference ([6]; EEE 1.25 µM): 0.007 | Gal9 response compared to reference ([6]; EEE 2.5 µM): 0.008 | Gal9 response compared to reference ([6]; EEE 5 µM): 0.010 | Gal9 response compared to reference ([6]; EEE 10 µM): 0.034 | Luciferase expression compared to reference [7]: 0.652 | Gal9 response compared to reference ([8]; EEE 0.31 µM): 0.008 | Gal9 response compared to reference ([8]; EEE 0.62 µM): 0.008 | Gal9 response compared to reference ([8]; EEE 1.25 µM): 0.009 | Gal9 response compared to reference ([8]; EEE 2.5 µM): 0.007 | Gal9 response compared to reference ([8]; EEE 5 µM): 0.007 | Gal9 response compared to reference ([8]; EEE 10 µM): 0.010 | Gal9 response compared to reference ([9]; EEE 0.31 µM): 0.008 | Gal9 response compared to reference ([9]; EEE 0.62 µM): 0.007 | Gal9 response compared to reference ([9]; EEE 1.25 µM): 0.008 | Gal9 response compared to reference ([9]; EEE 2.5 µM): 0.009 | Gal9 response compared to reference ([9]; EEE 5 µM): 0.009 | Gal9 response compared to reference ([9]; EEE 10 µM): 0.011
